Assay results taken from patent US20060264388A1, “Method for treating liver cancer by intrahepatic administration of nemorubicin” (priority 2003, published 2006).

Experiments:
[1] = system: patients with liver cancer; assay: Hematological toxicity - Leucocytes, worst CTC Grade by cycle, intrahepatic artery nemorubicin q8wk vs q6wk; type: in vivo, human; conditions: 800 mcg/m^2 q8wk
Protocol: (§1) The objective of the study was to shorten the time interval between treatment administrations from every 8 weeks (q8wk) of the protocol as reported in WO 00/15203 to every 6 weeks (q6wk). This was done in the attempt of improving the therapeutic potential of nemorubicin treatment through an increase of the dose intensity of the therapy, simultaneously safeguarding patient safety.
(§2) Overall, 13 patients were treated with the q8wk schedule (total 25 cycles administered; doses ranged from 200 to 800 mcg/m^2), and 11 patients were treated with the q6wk schedule (total 32 cycles administered; doses were 200 and 600 mcg/m^2).
(§3) The NCI-Common Tosicity Criteria grading system (CTC Grade), Version 2.0, was used to report toxicities.
A slight cumulative effect (i.e., increase in frequency but not in severity) was observed after repeated cycles for leucopenia and neutropenia (Tables 2 and 3), mainly with the q8wk schedule.

[2] = system: murine leukemias, solid murine and human tumor models; conditions: cited from earlier work
[3] = system: liver lesions of breast cancer patients with liver metastases; conditions: 1500 mcg/m^2 i.v., cited from earlier work
[4] = system: liver metastases from M5076 murine fibrosarcoma; conditions: cited from earlier work
[5] = system: liver metastases from M5076 murine; conditions: M5076 murine reticulosarcoma; cited from earlier work
[6] = system: patients with liver cancer; assay: Liver toxicity (SGOT, SGPT, Total Bilirubin), worst CTC Grade by cycle, intrahepatic artery nemorubicin q8wk vs q6wk; type: in vivo, human
Protocol: as §1, §2, §3

[7] = 200 mcg/m^2 q6wk, 12 evaluable cycles
[8] = 200 mcg/m^2 q8wk, 5 evaluable cycles
[9] = 400 mcg/m^2 q8wk, 4 evaluable cycles
[10] = 600 mcg/m^2 q6wk, 17 evaluable cycles
[11] = 600 mcg/m^2 q6wk, 18 evaluable cycles
[12] = 600 mcg/m^2 q8wk, 7 evaluable cycles
[13] = 800 mcg/m^2 q8wk, 5 evaluable cycles
[14] = 800 mcg/m^2 q8wk, 6 evaluable cycles

SMILES: COc1cccc2c1C(=O)c1c(O)c3c(c(O)c1C2=O)C[C@@](O)(C(=O)CO)C[C@@H]3O[C@H]1C[C@H](N2CCO[C@H](OC)C2)[C@H](O)[C@H](C)O1.Cl [nemorubicin, 3′desamino-3′[2(S)methoxy-4-morpholinyl]doxorubicin-hydrochloride]
- Leucocytes, worst CTC Grade by cycle: All Grades (%) ([1]; All cycles, 4 evaluable cycles): 3 (75%) (%)
- Leucocytes, worst CTC Grade by cycle: Grade 1-2 (%) ([1]; All cycles, 4 evaluable cycles): 3 (75%) (%)
- Leucocytes, worst CTC Grade by cycle: All Grades (%) ([1]; Cycle 1, 3 evaluable cycles): 2 (67%) (%)
- Leucocytes, worst CTC Grade by cycle: Grade 1-2 (%) ([1]; Cycle 1, 3 evaluable cycles): 2 (67%) (%)
- Leucocytes, worst CTC Grade by cycle: All Grades (%) ([1]; Cycles > 1, 1 evaluable cycle): 1 (100%) (%)
- Leucocytes, worst CTC Grade by cycle: Grade 1-2 (%) ([1]; Cycles > 1, 1 evaluable cycle): 1 (100%) (%)
- antitumor activity ([2]; after i.p., i.v. or oral administration, murine leukemias, solid murine and human tumor models): good antitumor activity
- effective oral doses, fold higher than the effective i.v. doses ([2]; animal tumor models, oral vs i.v.): 1.3-2 fold
- optimal i.v. dose, fold less than that of doxorubicin ([2]; in vivo, i.v.): at least 80 fold
- complete response (CR) in liver lesions ([3]; 6 patients): 1
- partial responses (PRs) in liver lesions (2 confirmed and 1 unconfirmed) ([3]; 6 patients): 3
- patients with response in liver lesions [3]: 4 out of 6
- efficacy on liver metastases versus solid primary ([4]; administered orally): more effective on the liver metastases than on the solid primary
- efficacy relative to oral formulation ([4]; injectable formulation): less effective
- best result on survival ([4]; oral formulation, administered daily for 5 days): doubling of survival time
- activity against liver metastases, oral versus i.v. [5]: higher after oral administration as compared to the i.v. route
- SGOT, worst CTC Grade by cycle (increased of at least one Grade versus baseline Grade): All Grades (%) [6, 7]: 9 (75%) (%)
- SGOT, worst CTC Grade by cycle (increased of at least one Grade versus baseline Grade): Grade 1-2 (%) [6, 7]: 8 (67%) (%)
- SGOT, worst CTC Grade by cycle (increased of at least one Grade versus baseline Grade): Grade 3-4 (%) [6, 7]: 1 (8%) (%)
- SGPT, worst CTC Grade by cycle (increased of at least one Grade versus baseline Grade): All Grades (%) [6, 7]: 7 (58%) (%)
- SGPT, worst CTC Grade by cycle (increased of at least one Grade versus baseline Grade): Grade 1-2 (%) [6, 7]: 7 (58%) (%)
- Total Bilirubin, worst CTC Grade by cycle (increased of at least one Grade versus baseline Grade): All Grades (%) [6, 7]: 10 (83%) (%)
- Total Bilirubin, worst CTC Grade by cycle (increased of at least one Grade versus baseline Grade): Grade 1-2 (%) [6, 7]: 10 (83%) (%)
- SGOT, worst CTC Grade by cycle (increased of at least one Grade versus baseline Grade): All Grades (%) [6, 8]: 3 (60%) (%)
- SGOT, worst CTC Grade by cycle (increased of at least one Grade versus baseline Grade): Grade 1-2 (%) [6, 8]: 3 (60%) (%)
- SGPT, worst CTC Grade by cycle (increased of at least one Grade versus baseline Grade): All Grades (%) [6, 8]: 4 (80%) (%)
- SGPT, worst CTC Grade by cycle (increased of at least one Grade versus baseline Grade): Grade 1-2 (%) [6, 8]: 4 (80%) (%)
- Total Bilirubin, worst CTC Grade by cycle (increased of at least one Grade versus baseline Grade): All Grades (%) [6, 8]: 5 (100%) (%)
- Total Bilirubin, worst CTC Grade by cycle (increased of at least one Grade versus baseline Grade): Grade 1-2 (%) [6, 8]: 5 (100%) (%)
- SGOT, worst CTC Grade by cycle (increased of at least one Grade versus baseline Grade): All Grades (%) [6, 9]: 4 (100%) (%)
- SGOT, worst CTC Grade by cycle (increased of at least one Grade versus baseline Grade): Grade 1-2 (%) [6, 9]: 1 (25%) (%)
- SGOT, worst CTC Grade by cycle (increased of at least one Grade versus baseline Grade): Grade 3-4 (%) [6, 9]: 3 (75%) (%)
- SGPT, worst CTC Grade by cycle (increased of at least one Grade versus baseline Grade): All Grades (%) [6, 9]: 3 (75%) (%)
- SGPT, worst CTC Grade by cycle (increased of at least one Grade versus baseline Grade): Grade 1-2 (%) [6, 9]: 2 (50%) (%)
- SGPT, worst CTC Grade by cycle (increased of at least one Grade versus baseline Grade): Grade 3-4 (%) [6, 9]: 1 (25%) (%)
- Total Bilirubin, worst CTC Grade by cycle (increased of at least one Grade versus baseline Grade): All Grades (%) [6, 9]: 2 (50%) (%)
- Total Bilirubin, worst CTC Grade by cycle (increased of at least one Grade versus baseline Grade): Grade 1-2 (%) [6, 9]: 2 (50%) (%)
- SGOT, worst CTC Grade by cycle (increased of at least one Grade versus baseline Grade): All Grades (%) [6, 10]: 16 (94%) (%)
- SGOT, worst CTC Grade by cycle (increased of at least one Grade versus baseline Grade): Grade 1-2 (%) [6, 10]: 14 (82%) (%)
- SGOT, worst CTC Grade by cycle (increased of at least one Grade versus baseline Grade): Grade 3-4 (%) [6, 10]: 2 (12%) (%)
- SGPT, worst CTC Grade by cycle (increased of at least one Grade versus baseline Grade): All Grades (%) [6, 11]: 16 (89%) (%)
- SGPT, worst CTC Grade by cycle (increased of at least one Grade versus baseline Grade): Grade 1-2 (%) [6, 11]: 14 (78%) (%)
- SGPT, worst CTC Grade by cycle (increased of at least one Grade versus baseline Grade): Grade 3-4 (%) [6, 11]: 2 (11%) (%)
- Total Bilirubin, worst CTC Grade by cycle (increased of at least one Grade versus baseline Grade): All Grades (%) [6, 11]: 14 (77%) (%)
- Total Bilirubin, worst CTC Grade by cycle (increased of at least one Grade versus baseline Grade): Grade 1-2 (%) [6, 11]: 13 (72%) (%)
- Total Bilirubin, worst CTC Grade by cycle (increased of at least one Grade versus baseline Grade): Grade 3-4 (%) [6, 11]: 1 (5%) (%)
- SGOT, worst CTC Grade by cycle (increased of at least one Grade versus baseline Grade): All Grades (%) [6, 12]: 4 (57%) (%)
- SGOT, worst CTC Grade by cycle (increased of at least one Grade versus baseline Grade): Grade 1-2 (%) [6, 12]: 2 (28%) (%)
- SGPT, worst CTC Grade by cycle (increased of at least one Grade versus baseline Grade): All Grades (%) [6, 12]: 4 (57%) (%)
- SGPT, worst CTC Grade by cycle (increased of at least one Grade versus baseline Grade): Grade 1-2 (%) [6, 12]: 1 (14%) (%)
- Total Bilirubin, worst CTC Grade by cycle (increased of at least one Grade versus baseline Grade): All Grades (%) [6, 12]: 7 (100%) (%)
- Total Bilirubin, worst CTC Grade by cycle (increased of at least one Grade versus baseline Grade): Grade 1-2 (%) [6, 12]: 7 (100%) (%)
- SGOT, worst CTC Grade by cycle (increased of at least one Grade versus baseline Grade): All Grades (%) [6, 13]: 4 (80%) (%)
- SGOT, worst CTC Grade by cycle (increased of at least one Grade versus baseline Grade): Grade 1-2 (%) [6, 13]: 1 (20%) (%)
- SGOT, worst CTC Grade by cycle (increased of at least one Grade versus baseline Grade): Grade 3-4 (%) [6, 13]: 3 (60%) (%)
- Total Bilirubin, worst CTC Grade by cycle (increased of at least one Grade versus baseline Grade): All Grades (%) [6, 13]: 4 (80%) (%)
- Total Bilirubin, worst CTC Grade by cycle (increased of at least one Grade versus baseline Grade): Grade 1-2 (%) [6, 13]: 3 (60%) (%)
- Total Bilirubin, worst CTC Grade by cycle (increased of at least one Grade versus baseline Grade): Grade 3-4 (%) [6, 13]: 1 (20%) (%)
- SGPT, worst CTC Grade by cycle (increased of at least one Grade versus baseline Grade): All Grades (%) [6, 14]: 5 (83%) (%)
- SGPT, worst CTC Grade by cycle (increased of at least one Grade versus baseline Grade): Grade 3-4 (%) [6, 14]: 5 (83%) (%)
- frequency of transaminitis, grade 3-4 events ([6]; q6wk versus q8wk schedule): lower in the q6wk than in the q8wk schedule
